According to PubChem BioAssay AID1259407 (Chemical Carcinogenesis Research Information System (CCRIS), 2018):
Calls of active or inactive are those of the source. No rule for the calls is given here.

Tested on: CCRIS mutagenicity, Ames/micronucleus/aberration tests
Assay: CCRIS mutagenicity studies
[1] = Test System: AMES SALMONELLA TYPHIMURIUM, Strain/Indicator: TA97, Metabolic Activation: NONE, Method: PREINCUBATION
[2] = Test System: AMES SALMONELLA TYPHIMURIUM, Strain/Indicator: TA98, Metabolic Activation: NONE, Method: PREINCUBATION
[3] = Test System: AMES SALMONELLA TYPHIMURIUM, Strain/Indicator: TA100, Metabolic Activation: NONE, Method: PREINCUBATION
[4] = Test System: AMES SALMONELLA TYPHIMURIUM, Strain/Indicator: TA1535, Metabolic Activation: NONE, Method: PREINCUBATION

Q: `Nc1ccc([As](=O)(O)O)cc1` was tested. Which mutagenic call (Test System: AMES SALMONELLA TYPHIMURIUM, Strain/Indicator: TA97, Metabolic Activation: HAMSTER, LIVER, S-9, AROCLOR 1254 (10 OR 30%), Method: PREINCUBATION) did it give?
A: inactive; negative

Q: What about the mutagenic call [1] of the same molecule?
A: inactive; negative

Q: And the mutagenic call (Test System: AMES SALMONELLA TYPHIMURIUM, Strain/Indicator: TA97, Metabolic Activation: RAT, LIVER, S-9, AROCLOR 1254 (10 OR 30%), Method: PREINCUBATION)?
A: inactive; negative

Q: What about the mutagenic call (Test System: AMES SALMONELLA TYPHIMURIUM, Strain/Indicator: TA98, Metabolic Activation: HAMSTER, LIVER, S-9, AROCLOR 1254 (10 OR 30%), Method: PREINCUBATION) of the same molecule?
A: inactive; negative

Q: And the mutagenic call [2]?
A: inactive; negative

Q: What about the mutagenic call (Test System: AMES SALMONELLA TYPHIMURIUM, Strain/Indicator: TA98, Metabolic Activation: RAT, LIVER, S-9, AROCLOR 1254 (10 OR 30%), Method: PREINCUBATION) of the same molecule?
A: inactive; negative

Q: What about the mutagenic call (Test System: AMES SALMONELLA TYPHIMURIUM, Strain/Indicator: TA100, Metabolic Activation: HAMSTER, LIVER, S-9, AROCLOR 1254 (10 OR 30%), Method: PREINCUBATION) of the same molecule?
A: inactive; negative

Q: And the mutagenic call [3]?
A: inactive; negative

Q: What about the mutagenic call (Test System: AMES SALMONELLA TYPHIMURIUM, Strain/Indicator: TA100, Metabolic Activation: RAT, LIVER, S-9, AROCLOR 1254 (10 OR 30%), Method: PREINCUBATION) of the same molecule?
A: inactive; negative

Q: And the mutagenic call (Test System: AMES SALMONELLA TYPHIMURIUM, Strain/Indicator: TA1535, Metabolic Activation: HAMSTER, LIVER, S-9, AROCLOR 1254 (10 OR 30%), Method: PREINCUBATION)?
A: inactive; negative

Q: What about the mutagenic call [4] of the same molecule?
A: inactive; negative

Q: What about the mutagenic call (Test System: AMES SALMONELLA TYPHIMURIUM, Strain/Indicator: TA1535, Metabolic Activation: RAT, LIVER, S-9, AROCLOR 1254 (10 OR 30%), Method: PREINCUBATION) of the same molecule?
A: inactive; negative

Q: Which mutagenic call (End Point: IN VITRO CHROMOSOMAL ABERRATIONS, Test System: CHINESE HAMSTER LUNG CELLS (CHL), Metabolic Activation: RAT, LIVER, S-9, KC-400) does the source give for `CCN(CC)c1ccc(N)cc1` here?
A: inactive; negative

Q: And the mutagenic call (End Point: IN VITRO CHROMOSOMAL ABERRATIONS, Test System: CHINESE HAMSTER OVARY CELLS (CHO), Metabolic Activation: NONE)?
A: active; positive (structural changes)

Q: What about the mutagenic call (End Point: IN VITRO CHROMOSOMAL ABERRATIONS, Test System: CHINESE HAMSTER OVARY CELLS (CHO), Metabolic Activation: RAT, LIVER, S-9, AROCLOR 1254) of the same molecule?
A: inactive; negative

Q: What about the mutagenic call (Test System: AMES SALMONELLA TYPHIMURIUM, Strain/Indicator: TA97, Metabolic Activation: HAMSTER, LIVER, S-9, AROCLOR 1254 (10%), Method: PREINCUBATION) of the same molecule?
A: active; positive

Q: And the mutagenic call [1]?
A: inactive; negative

Q: And the mutagenic call (Test System: AMES SALMONELLA TYPHIMURIUM, Strain/Indicator: TA97, Metabolic Activation: RAT, LIVER, S-9, AROCLOR 1254 (10%), Method: PREINCUBATION)?
A: inactive; negative

Q: And the mutagenic call (Test System: AMES SALMONELLA TYPHIMURIUM, Strain/Indicator: TA98, Metabolic Activation: HAMSTER, LIVER, S-9, AROCLOR 1254 (10%), Method: PREINCUBATION)?
A: active; positive

Q: What about the mutagenic call [2] of the same molecule?
A: inactive; negative

Q: What about the mutagenic call (Test System: AMES SALMONELLA TYPHIMURIUM, Strain/Indicator: TA98, Metabolic Activation: RAT, LIVER, S-9, AROCLOR 1254 (10%), Method: PREINCUBATION) of the same molecule?
A: active; positive

Q: What about the mutagenic call (Test System: AMES SALMONELLA TYPHIMURIUM, Strain/Indicator: TA100, Metabolic Activation: HAMSTER, LIVER, S-9, AROCLOR 1254 (10%), Method: PREINCUBATION) of the same molecule?
A: active; positive

Q: And the mutagenic call [3]?
A: inactive; negative

Q: And the mutagenic call (Test System: AMES SALMONELLA TYPHIMURIUM, Strain/Indicator: TA100, Metabolic Activation: RAT, LIVER, S-9, AROCLOR 1254 (30%), Method: PREINCUBATION)?
A: inactive; negative

Q: What about the mutagenic call (Test System: AMES SALMONELLA TYPHIMURIUM, Strain/Indicator: TA1535, Metabolic Activation: HAMSTER, LIVER, S-9, AROCLOR 1254 (10%), Method: PREINCUBATION) of the same molecule?
A: inactive; negative

Q: And the mutagenic call [4]?
A: inactive; negative

Q: And the mutagenic call (Test System: AMES SALMONELLA TYPHIMURIUM, Strain/Indicator: TA1535, Metabolic Activation: RAT, LIVER, S-9, AROCLOR 1254 (10%), Method: PREINCUBATION)?
A: inactive; negative

Q: How did the mutagenic call (Test System: AMES SALMONELLA TYPHIMURIUM, Strain/Indicator: TA98, Metabolic Activation: HAMSTER, LIVER, S-9, AROCLOR 1254, Method: PREINCUBATION) turn out when `Cc1ccc(C)cc1` was run?
A: inactive; negative

Q: What about the mutagenic call [2] of the same molecule?
A: inactive; negative

Q: And the mutagenic call (Test System: AMES SALMONELLA TYPHIMURIUM, Strain/Indicator: TA98, Metabolic Activation: NONE, Method: STANDARD PLATE)?
A: inactive; negative

Q: What about the mutagenic call (Test System: AMES SALMONELLA TYPHIMURIUM, Strain/Indicator: TA98, Metabolic Activation: RAT, LIVER, S-9, AROCLOR 1254, Method: PREINCUBATION) of the same molecule?
A: inactive; negative

Q: What about the mutagenic call (Test System: AMES SALMONELLA TYPHIMURIUM, Strain/Indicator: TA98, Metabolic Activation: RAT, LIVER, S-9, AROCLOR, Method: STANDARD PLATE) of the same molecule?
A: inactive; negative

Q: What about the mutagenic call (Test System: AMES SALMONELLA TYPHIMURIUM, Strain/Indicator: TA98, Metabolic Activation: RAT, LIVER, S-9, KC 500, Method: PREINCUBATION) of the same molecule?
A: inactive; negative

Q: What about the mutagenic call (Test System: AMES SALMONELLA TYPHIMURIUM, Strain/Indicator: TA100, Metabolic Activation: HAMSTER, LIVER, S-9, AROCLOR 1254, Method: PREINCUBATION) of the same molecule?
A: inactive; negative

Q: What about the mutagenic call [3] of the same molecule?
A: inactive; negative

Q: And the mutagenic call (Test System: AMES SALMONELLA TYPHIMURIUM, Strain/Indicator: TA100, Metabolic Activation: NONE, Method: STANDARD PLATE)?
A: inactive; negative

Q: What about the mutagenic call (Test System: AMES SALMONELLA TYPHIMURIUM, Strain/Indicator: TA100, Metabolic Activation: RAT, LIVER, S-9, AROCLOR 1254, Method: PREINCUBATION) of the same molecule?
A: inactive; negative

Q: What about the mutagenic call (Test System: AMES SALMONELLA TYPHIMURIUM, Strain/Indicator: TA100, Metabolic Activation: RAT, LIVER, S-9, AROCLOR, Method: STANDARD PLATE) of the same molecule?
A: inactive; negative

Q: And the mutagenic call (Test System: AMES SALMONELLA TYPHIMURIUM, Strain/Indicator: TA100, Metabolic Activation: RAT, LIVER, S-9, KC 500, Method: PREINCUBATION)?
A: inactive; negative

Q: And the mutagenic call (Test System: AMES SALMONELLA TYPHIMURIUM, Strain/Indicator: TA1535, Metabolic Activation: HAMSTER, LIVER, S-9, AROCLOR 1254, Method: PREINCUBATION)?
A: inactive; negative

Q: What about the mutagenic call [4] of the same molecule?
A: inactive; negative

Q: What about the mutagenic call (Test System: AMES SALMONELLA TYPHIMURIUM, Strain/Indicator: TA1535, Metabolic Activation: RAT, LIVER, S-9, AROCLOR 1254, Method: PREINCUBATION) of the same molecule?
A: inactive; negative

Q: And the mutagenic call (Test System: AMES SALMONELLA TYPHIMURIUM, Strain/Indicator: TA1535, Metabolic Activation: RAT, LIVER, S-9, KC 500, Method: PREINCUBATION)?
A: inactive; negative

Q: And the mutagenic call (Test System: AMES SALMONELLA TYPHIMURIUM, Strain/Indicator: TA1537, Metabolic Activation: HAMSTER, LIVER, S-9, AROCLOR 1254, Method: PREINCUBATION)?
A: inactive; negative

Q: What about the mutagenic call (Test System: AMES SALMONELLA TYPHIMURIUM, Strain/Indicator: TA1537, Metabolic Activation: NONE, Method: PREINCUBATION) of the same molecule?
A: inactive; negative

Q: And the mutagenic call (Test System: AMES SALMONELLA TYPHIMURIUM, Strain/Indicator: TA1537, Metabolic Activation: RAT, LIVER, S-9, AROCLOR 1254, Method: PREINCUBATION)?
A: inactive; negative

Q: And the mutagenic call (Test System: AMES SALMONELLA TYPHIMURIUM, Strain/Indicator: TA1537, Metabolic Activation: RAT, LIVER, S-9, KC 500, Method: PREINCUBATION)?
A: inactive; negative

Q: And the mutagenic call (Test System: AMES SALMONELLA TYPHIMURIUM, Strain/Indicator: TA1538, Metabolic Activation: NONE, Method: PREINCUBATION)?
A: inactive; negative

Q: What about the mutagenic call (Test System: AMES SALMONELLA TYPHIMURIUM, Strain/Indicator: TA1538, Metabolic Activation: RAT, LIVER, S-9, KC 500, Method: PREINCUBATION) of the same molecule?
A: inactive; negative

Q: What about the mutagenic call (Test System: AMES SALMONELLA TYPHIMURIUM, Strain/Indicator: UTH8413, Metabolic Activation: NONE, Method: STANDARD PLATE) of the same molecule?
A: inactive; negative

Q: What about the mutagenic call (Test System: AMES SALMONELLA TYPHIMURIUM, Strain/Indicator: UTH8413, Metabolic Activation: RAT, LIVER, S-9, AROCLOR, Method: STANDARD PLATE) of the same molecule?
A: inactive; negative

Q: And the mutagenic call (Test System: AMES SALMONELLA TYPHIMURIUM, Strain/Indicator: UTH8414, Metabolic Activation: NONE, Method: STANDARD PLATE)?
A: inactive; negative

Q: What about the mutagenic call (Test System: AMES SALMONELLA TYPHIMURIUM, Strain/Indicator: UTH8414, Metabolic Activation: RAT, LIVER, S-9, AROCLOR, Method: STANDARD PLATE) of the same molecule?
A: inactive; negative

Q: What about the mutagenic call (Test System: E. COLI, Strain/Indicator: WP2 UVRA, Metabolic Activation: NONE, Method: PREINCUBATION) of the same molecule?
A: inactive; negative

Q: What about the mutagenic call (Test System: E. COLI, Strain/Indicator: WP2 UVRA, Metabolic Activation: RAT, LIVER, S-9, KC 500, Method: PREINCUBATION) of the same molecule?
A: inactive; negative
